Test results: US20260176320A1, “MODULATORS OF G-PROTEIN COUPLED RECEPTORS” (priority 2018, published 2026)
Read-outs that look alike come from different tables or passages of the source.

What was measured:
Assay type in all cases: cell-based
[1] = molecular target: T1, GLP-1R (Homo sapiens, UniProt P43220); experiment: PathHunter β-arrestin assay
Protocol: The effects of the chemical entities described herein on β-arrestin signaling and associated downstream processes (e.g., those delineated above) can be assessed using conventional methods, e.g., PathHunter β-arrestin Assay for determining β-arresting coupling (see Examples section). […] It has been shown that b-arrestin coupling is a key strep in receptor internalization and subsequent de-sensitization and attenuation of signaling.
5,000 cells were seeded in appropriate cell culture media per well in a low volume 384-well tissue culture plate. The assay plate was incubated with cells overnight at 37° C. and 5% CO2. The media was removed, and 5 μL of appropriate cell culture media containing 0.2% BSA was added. Agonist serial dilutions in a separate 384 well dilution plate in a 22-point series of 2× dilutions of agonist in DMSO were performed as follows. 80 μL of the highest concentration of Agonist/DMSO was added to well No. 1. 40 μL was removed from well No. 1, and added to well No. 2, followed by gentle mixing. […] This process was repeated until well No. 22. Additional serial dilutions for additional agonists were set up in a similar manner. 100 nL of each 2× agonist serial dilution was added in duplicate to the designated agonist rows of the assay plate using the Labcyte ECHO. Assay plate was incubated for 90 minutes at 37° C. and 5% CO2. A stock of Working Detection Solution in a separate 15 ml polypropylene tube was prepared by mixing 19 parts of Cell Assay Buffer, 5 parts of Substrate Reagent 1, 1 part Substrate Reagent 2. […] Plates were spun down briefly. Assay plate was incubated for 3 hour at room temperature in the dark for the immunocompetition reaction to occur. Samples were read on Tecan i-control plate reader using luminescence mode with 100 ms integration time. Data analysis was performed using GraphPad Prism.

[2] = molecular target: T1, GLP-1R; experiment: HitHunter cAMP assay (GLP-1R); conditions: for Emax: read-out: (Emax) GLP-1R
Outline: (§1)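 Duplicate 22-point, 2-fold agonist titrations applied to receptor-expressing suspension cells in IBMX-containing HBSS; 30 min RT stimulation. Read: luminescent cAMP immunocompetition after O/N dark incubation.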

[3] = molecular target: T2, GIP-R (Homo sapiens, UniProt P48546); experiment: HitHunter cAMP assay (GIP-R); conditions: for Emax: read-out: (Emax) GIP-R
T2 sequence (P48546 22-466): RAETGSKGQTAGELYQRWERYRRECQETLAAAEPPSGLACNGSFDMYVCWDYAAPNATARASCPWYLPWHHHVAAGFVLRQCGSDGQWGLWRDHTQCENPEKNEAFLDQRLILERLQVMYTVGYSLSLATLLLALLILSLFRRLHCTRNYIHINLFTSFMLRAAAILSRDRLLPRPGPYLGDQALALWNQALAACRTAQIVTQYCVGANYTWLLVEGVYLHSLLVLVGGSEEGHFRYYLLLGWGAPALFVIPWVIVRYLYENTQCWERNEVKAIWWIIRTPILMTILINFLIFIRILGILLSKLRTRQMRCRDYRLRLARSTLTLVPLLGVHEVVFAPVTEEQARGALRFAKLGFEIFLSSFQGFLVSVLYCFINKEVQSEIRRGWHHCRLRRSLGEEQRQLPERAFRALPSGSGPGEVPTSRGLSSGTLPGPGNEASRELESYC
Outline: as §1

[4] = PathHunter β-arrestin assay, read-out: β-arrestin activity EC50
[5] = Table 3A, cAMP, read-out: EC50 GLP-1R/nM
[6] = Table 3A, cAMP, read-out: EC50 GIP-R/nM
[7] = Table 3, cAMP, read-out: EC50 GLP-1R/nM
[8] = Table 3, cAMP, read-out: EC50 GIP-R/nM

T1 sequence (P43220 24-463): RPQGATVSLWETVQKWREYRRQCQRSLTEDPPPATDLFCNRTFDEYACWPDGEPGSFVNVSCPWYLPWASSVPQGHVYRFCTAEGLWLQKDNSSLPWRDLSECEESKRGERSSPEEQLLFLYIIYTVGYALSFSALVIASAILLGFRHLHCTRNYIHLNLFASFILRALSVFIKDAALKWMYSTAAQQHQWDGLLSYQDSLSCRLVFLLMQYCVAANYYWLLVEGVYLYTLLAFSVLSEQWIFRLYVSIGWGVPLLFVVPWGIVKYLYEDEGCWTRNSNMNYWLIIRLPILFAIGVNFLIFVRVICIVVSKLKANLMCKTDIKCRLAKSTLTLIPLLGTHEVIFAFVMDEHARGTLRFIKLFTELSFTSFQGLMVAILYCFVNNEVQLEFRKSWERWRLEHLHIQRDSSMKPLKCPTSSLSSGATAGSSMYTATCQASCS

| SMILES | EC50 [1, 4] | Emax ([2]; Table 3A, cAMP) | EC50 [2, 5] | Emax ([3]; Table 3A, cAMP) | EC50 [3, 6] | Emax ([2]; Table 3, cAMP) | EC50 [2, 7] | Emax ([3]; Table 3, cAMP) | EC50 [3, 8] | EC50 [1] | EC50 ([2]; EC50 GLP-1R/nM, Table 3, cAMP) | EC50 ([2]; EC50 GLP-1R/nM, Table 3A, cAMP) | EC50 ([3]; EC50 GIP-R/nM, Table 3, cAMP) | EC50 ([3]; EC50 GIP-R/nM, Table 3A, cAMP) | EC50 [2] | (Emax) GLP-1R ([2]; Table 3A, cAMP) | Emax [2] | EC50 ([2]; read-out: EC50 GLP-1R/nM, Table 3A, cAMP) | Emax [3] | Emax at 1 µM ([3]; read-out: (Emax) GIP-R at 1 μM, Table 3, cAMP, at 1 μM) |
| --- | --- | --- | --- | --- | --- | --- | --- | --- | --- | --- | --- | --- | --- | --- | --- | --- | --- | --- | --- | --- |
| CCCCCCCCCCCCCCCC(=O)N[C@@H](CCC(=O)NCCCC[C@H](NC(=O)[C@H](CO)NC(=O)[C@@H]1CCCN1C(=O)[C@@H]1CCCN1C(=O)[C@@H]1CCCN1C(=O)[C@H](C)NC(=O)CNC(=O)[C@H](CO)NC(=O)[C@H](CO)NC(=O)[C@@H]1CCCN1C(=O)CNC(=O)CNC(=O)[C@H](C)NC(=O)[C@H](CC(C)C)NC(=O)[C@H](CC(C)C)NC(=O)[C@H](Cc1c[nH]c2ccccc12)NC(=O)[C@H](CC(N)=O)NC(=O)[C@@H](NC(=O)[C@H](Cc1ccccc1)NC(=O)[C@H](CCC(=O)O)NC(=O)C(C)(C)NC(=O)[C@H](C)NC(=O)[C@H](C)NC(=O)[C@H](CCC(N)=O)NC(=O)[C@H](CCCCN)NC(=O)[C@H](CC(=O)O)NC(=O)[C@H](CC(C)C)NC(=O)[C@H](Cc1ccc(O)cc1)NC(=O)[C@@H](NC(=O)[C@H](CO)NC(=O)[C@H](Cc1ccc(O)cc1)NC(=O)[C@H](CC(=O)O)NC(=O)[C@H](CO)NC(=O)[C@@H](NC(=O)[C@H](Cc1ccccc1)NC(=O)[C@@H](NC(=O)CNC(=O)[C@H](CCC(=O)O)NC(=O)CCNC(=O)CCN1CCCC1=O)[C@@H](C)O)[C@@H](C)O)[C@@H](C)CC)C(C)C)C(N)=O)C(=O)O [Compound 265] | < 10 nM | 100% | < 0.1 nM | 80% | 0.1 to 1 nM |  |  |  |  |  |  |  |  |  |  |  |  |  |  |  |
| CC[C@H](C)[C@H](NC(=O)[C@H](CO)NC(=O)[C@H](Cc1ccc(O)cc1)NC(=O)[C@H](CC(=O)O)NC(=O)[C@H](CO)NC(=O)[C@@H](NC(=O)[C@H](Cc1ccccc1)NC(=O)[C@@H](NC(=O)CNC(=O)[C@H](CCC(=O)O)NC(=O)C(C)(C)NC(=O)CCN1C(=O)CSC1=O)[C@@H](C)O)[C@@H](C)O)C(=O)N[C@@H](Cc1ccc(O)cc1)C(=O)N[C@@H](CC(C)C)C(=O)N[C@@H](CC(=O)O)C(=O)N[C@@H](CCCCN)C(=O)N[C@@H](CCC(N)=O)C(=O)N[C@@H](C)C(=O)N[C@@H](C)C(=O)NC(C)(C)C(=O)N[C@@H](CCC(=O)O)C(=O)N[C@@H](Cc1ccccc1)C(=O)N[C@H](C(=O)N[C@@H](CC(N)=O)C(=O)N[C@@H](Cc1c[nH]c2ccccc12)C(=O)N[C@@H](CC(C)C)C(=O)N[C@@H](CC(C)C)C(=O)N[C@@H](C)C(=O)NCC(=O)NCC(=O)N1CCC[C@H]1C(=O)N[C@@H](CO)C(=O)N[C@@H](CO)C(=O)NCC(=O)N[C@@H](C)C(=O)N1CCC[C@H]1C(=O)N1CCC[C@H]1C(=O)N1CCC[C@H]1C(=O)N[C@@H](CO)C(=O)N[C@@H](CCCCN)C(N)=O)C(C)C [Compound 130] | > 1000 nM | 114% | 0.1 to 1 nM | 64% | 1 to 10 nM | 114% | 0.1 to 1 nM | 64% | 1 to 10 nM |  |  |  |  |  |  |  |  |  |  |  |
| CCCCCCCCCCCCCCCC(=O)N[C@@H](CCC(=O)NCCCC[C@H](NC(=O)[C@H](CO)NC(=O)[C@@H]1CCCN1C(=O)[C@@H]1CCCN1C(=O)[C@@H]1CCCN1C(=O)[C@H](C)NC(=O)CNC(=O)[C@H](CO)NC(=O)[C@H](CO)NC(=O)[C@@H]1CCCN1C(=O)CNC(=O)CNC(=O)[C@H](C)NC(=O)[C@H](CC(C)C)NC(=O)[C@H](CC(C)C)NC(=O)[C@H](Cc1c[nH]c2ccccc12)NC(=O)[C@H](CC(N)=O)NC(=O)[C@@H](NC(=O)[C@H](Cc1ccccc1)NC(=O)[C@H](CCC(=O)O)NC(=O)C(C)(C)NC(=O)[C@H](C)NC(=O)[C@H](C)NC(=O)[C@H](CCC(N)=O)NC(=O)[C@H](CCCCN)NC(=O)[C@H](CC(=O)O)NC(=O)[C@H](CC(C)C)NC(=O)[C@H](Cc1ccc(O)cc1)NC(=O)[C@@H](NC(=O)[C@H](CO)NC(=O)[C@H](Cc1ccc(O)cc1)NC(=O)[C@H](CC(=O)O)NC(=O)[C@H](CO)NC(=O)[C@@H](NC(=O)[C@H](Cc1ccccc1)NC(=O)[C@@H](NC(=O)CNC(=O)[C@H](CCC(=O)O)NC(=O)CSCC(=O)NCCN1CCC[C@@H](O)C1=O)[C@@H](C)O)[C@@H](C)O)[C@@H](C)CC)C(C)C)C(N)=O)C(=O)O [Compound 7] |  | 94% |  | 29% |  | 94% |  | 29% |  | > 1000 nM | < 0.1 nM | < 0.1 nM | 1 to 10 nM | 10 to 100 nM |  |  |  |  |  |  |
| CC[C@H](C)[C@H](NC(=O)[C@H](CO)NC(=O)[C@H](Cc1ccc(O)cc1)NC(=O)[C@H](CC(=O)O)NC(=O)[C@H](CO)NC(=O)[C@@H](NC(=O)[C@H](Cc1ccccc1)NC(=O)[C@@H](NC(=O)CNC(=O)[C@H](CCC(=O)O)NC(=O)C1(C(=O)NCCN2C(=O)CSC2=O)CCC1)[C@@H](C)O)[C@@H](C)O)C(=O)N[C@@H](Cc1ccc(O)cc1)C(=O)N[C@@H](CC(C)C)C(=O)N[C@@H](CC(=O)O)C(=O)N[C@@H](CCCCN)C(=O)N[C@@H](CCC(N)=O)C(=O)N[C@@H](C)C(=O)N[C@@H](C)C(=O)NC(C)(C)C(=O)N[C@@H](CCC(=O)O)C(=O)N[C@@H](Cc1ccccc1)C(=O)N[C@H](C(=O)N[C@@H](CC(N)=O)C(=O)N[C@@H](Cc1c[nH]c2ccccc12)C(=O)N[C@@H](CC(C)C)C(=O)N[C@@H](CC(C)C)C(=O)N[C@@H](C)C(=O)NCC(=O)NCC(=O)N1CCC[C@H]1C(=O)N[C@@H](CO)C(=O)N[C@@H](CO)C(=O)NCC(=O)N[C@@H](C)C(=O)N1CCC[C@H]1C(=O)N1CCC[C@H]1C(=O)N1CCC[C@H]1C(=O)N[C@@H](CO)C(=O)N[C@@H](CCCCN)C(N)=O)C(C)C [Compound 134] |  |  |  |  |  |  |  |  |  | 10 to 1000 nM |  |  | 10 to 100 nM | 10 to 100 nM | < 0.1 nM | 103-108% | 103 to 108% | < 0.1 nM | 30% |  |
| CC[C@H](C)[C@H](NC(=O)[C@H](CO)NC(=O)[C@H](Cc1ccc(O)cc1)NC(=O)[C@H](CC(=O)O)NC(=O)[C@H](CO)NC(=O)[C@@H](NC(=O)[C@H](Cc1ccccc1)NC(=O)[C@@H](NC(=O)CNC(=O)[C@H](CCC(=O)O)NC(=O)CN1C(=O)CSC1=O)[C@@H](C)O)[C@@H](C)O)C(=O)N[C@@H](Cc1ccc(O)cc1)C(=O)N[C@@H](CC(C)C)C(=O)N[C@@H](CC(=O)O)C(=O)N[C@@H](CCCCN)C(=O)N[C@@H](CCC(N)=O)C(=O)N[C@@H](C)C(=O)N[C@@H](C)C(=O)NC(C)(C)C(=O)N[C@@H](CCC(=O)O)C(=O)N[C@@H](Cc1ccccc1)C(=O)N[C@H](C(=O)N[C@@H](CC(N)=O)C(=O)N[C@@H](Cc1c[nH]c2ccccc12)C(=O)N[C@@H](CC(C)C)C(=O)N[C@@H](CC(C)C)C(=O)N[C@@H](C)C(=O)NCC(=O)NCC(=O)N1CCC[C@H]1C(=O)N[C@@H](CO)C(=O)N[C@@H](CO)C(=O)NCC(=O)N[C@@H](C)C(=O)N1CCC[C@H]1C(=O)N1CCC[C@H]1C(=O)N1CCC[C@H]1C(=O)N[C@@H](CO)C(=O)N[C@@H](CCCCN)C(N)=O)C(C)C [Compound 185] | > 1000 nM | 97% | 0.1 to 1 nM |  | > 1000 nM | 97% | 0.1 to 1 nM |  | > 1000 nM |  |  |  |  |  |  |  |  |  |  | 8.6% |
